Experimental data: patent US20230285504A1, “INHIBITION OF REPERFUSION INJURY WITH A PSD-95 INHIBITOR” (NONO INC., priority 2020, published 2023)
No end group written: not given here.

Tests used:
[1] = intravenous over 10 minutes; cited from earlier work
[2] = target: protein-protein interactions of PSD-95 with neuronal nitric oxide synthase (nNOS) (Homo sapiens, UniProt P78352); details: read-out: IC50 perturbing PSD-95 interaction with nNOS; cited from earlier work
[3] = tested on: patients with acute ischemic stroke (AIS) due to a large vessel arterial occlusion selected for endovascular thrombectomy; details: published primary trial result; cited from earlier work
[4] = Plasma half-life in human; assay type: in vivo; details: intravenous, human equivalent concentrations, read-out: half-life of nerinetide
Source text: Tat-NR2B9c has a plasma half-life in human plasma of about ten minutes. […] Alteplase (a recombinant form of tPA) has a half-life in human plasma of only about five minutes. But more significant for present purposes is the half-life of plasmin, which is induced by alteplase and other thrombolytic agents and is responsible for cleavage of Tat-NR2B9c. Plasmin has been reported to have a half-life in human plasma of about 4-8 hr.

[5] = In-vitro effect of alteplase (rt-PA) on nerinetide content in rat plasma (HPLC); assay type: in vitro ADME; details: 65 ug/ml nerinetide, 37 C, alteplase added over 60 minutes (22.5 ug/ml, 3 times and 6 times)
Method: A. LC/MS spectrum of nerinetide after incubation with plasmin in PBS. 10 uL aliquots of nerinetide (18 mg/mL) and plasmin (1 mg/mL) were incubated in 500 uL tubes of phosphate-buffered saline at 37 C for 5 min and the reaction stopped by cooling to −80C until tested. The various peaks correspond to the indicated fragments. Insert: Predicted trypsin cleavage sites and actual cleavage sites. (B,C) In-vitro effect of rt-PA on nerinetide content in rat (B) and human (C) plasma. Nerinetide was spiked into the plasma samples at t=0 at a concentration of 65 ug/ml, whereas alteplase (rt-PA) was administered as a 60 min infusion at the indicated concentration (D, E) In-vivo effect of the simultaneous administration of nerinetide and rt-PA on Cmax (D) and AUC (E) in the rat. The nerinetide bolus and alteplase (60 min infusion) were started simultaneously through two separate intravenous lines. Symbols represent mean±SD.
The concentration of 65 ug/ml of nerinetide represents the theoretical peak concentration in a 75 kg person receiving 2.6 mg/kg dose as a bolus. Alteplase was added over 60 minutes to simulate the clinical dosing approach.

[6] = tested on: patients with acute ischemic stroke (AIS) due to a large vessel arterial occlusion selected for endovascular thrombectomy; experiment: ESCAPE-NA1 phase 3 trial, exploratory re-analyses of dosing time (mRS 0-2 at 90 days); assay type: in vivo, human
Method: The details of the ESCAPE-NA1 methodology are published^2. In-brief, the trial was conducted at 48 sites globally. Adult patients aged 18 or greater with a disabling ischemic stroke (baseline National Institutes of Health Stroke Scale (NIHSS) score^11>5), CT evidence of a small-to-moderate ischemic core (ASPECTS 5-10)^12 and CTA evidence of LVO with a moderate-to-good collateral circulation^13,14 were enrolled in a window of up to 12 hours after the onset of stroke symptoms (last-seen-well time). Enrollment was stratified on the use of intravenous alteplase (yes/no) and declared initial thrombectomy device (stent-retriever or aspiration device). Randomized minimization was conducted within strata aimed to achieve distribution balance with regard to age, sex, baseline NIHSS, site of arterial occlusion, baseline ASPECTS and clinical site. Nerinetide and placebo vials were visually identical other than a unique vial number so that all trial personnel and patients were fully masked to treatment allocation.
After qualifying imaging, patients were treated with rapid EVT using currently available devices. Patients received intravenous alteplase^15 according to usual care following national or regional guidelines, before or during EVT, at a primary hospital prior to transfer or at the endovascular center. Treatment with alteplase was not a requirement for the study and interpretation of treatment guidelines was at the discretion of the treating team. Patients received trial drug (1:1 nerinetide:placebo), as a single dose of 2.6 mg/kg to a maximum dose of 270 mg as soon as possible after randomization. Time targets were imaging to randomization 30 minutes, imaging to study drug administration 60 minutes, and imaging to arterial access/puncture 60 minutes. Targets from imaging to reperfusion were 90th percentile 90 minutes and a median at 75 minutes.^16,17 Times (min) for workflow are summarized in Table 3.
The primary outcome was good outcome at 90 days as defined by a score of 0-2 on the modified Rankin scale (mRS) (range, 0 [no symptoms] to 6 [death]) for the assessment of neurologic functional disability^18-20. Secondary 90 day efficacy outcomes included neurological outcome as defined by the NIHSS of 0-2, functional independence in activities of daily living as defined by a Barthel Index score of 95, and mortality rates. Tertiary outcomes included assessments of stroke volumes on 24-hour imaging (MR or CT brain). Imaging interpretation was conducted at a central core laboratory and clinical data were verified by independent monitors. Infarct volumes were measured by summation of manual planimetric demarcation of infarct on axial imaging (636/1099 (57.9%) on CT and 463/1099 (42.1%) on MRI).
Analyses of efficacy in this stratum were conducted as per the primary analysis of ESCAPE-NA1 on the intention-to-treat (ITT) population, and comprised a logistic regression providing an adjusted estimate of effect size including treatment, the stratification variable of declared initial endovascular approach, and the baseline covariates of age, sex, baseline NIHSS score, baseline ASPECTS, occlusion location and clinical site. Analyses of secondary efficacy outcomes were conducted similarly to the primary analysis. To determine the impact of time metrics of interest on the efficacy of nerinetide (e.g., Onset to randomization, CT to reperfusion, Randomization to reperfusion, and Drug administration to reperfusion), the metrics variables were included in the regression analysis that was otherwise conducted like the primary analysis. Deceased patients were included in the ITT population with a mRS score of 6, a Barthel Index of 0 and NIHSS of 42. Missing primary outcomes (n=9) were imputed as the worst possible score, counted as poor outcome (mRS 3-6 dichotomy) and for mortality analysis, imputed as deaths. All analyses were performed with the use of STATA software (v16.0).

[7] = Intrinsic fibrinolytic activity
[8] = no-alteplase, drug started 22 or more minutes from initial reperfusion
[9] = no-alteplase, long CT to reperfusion interval (>=73.5 minutes)
[10] = no-alteplase, study drug started less than 5 minutes after groin puncture

Sequence of protein-protein interactions of PSD-95 with neuronal nitric oxide synthase (nNOS) (P78352 whole entry): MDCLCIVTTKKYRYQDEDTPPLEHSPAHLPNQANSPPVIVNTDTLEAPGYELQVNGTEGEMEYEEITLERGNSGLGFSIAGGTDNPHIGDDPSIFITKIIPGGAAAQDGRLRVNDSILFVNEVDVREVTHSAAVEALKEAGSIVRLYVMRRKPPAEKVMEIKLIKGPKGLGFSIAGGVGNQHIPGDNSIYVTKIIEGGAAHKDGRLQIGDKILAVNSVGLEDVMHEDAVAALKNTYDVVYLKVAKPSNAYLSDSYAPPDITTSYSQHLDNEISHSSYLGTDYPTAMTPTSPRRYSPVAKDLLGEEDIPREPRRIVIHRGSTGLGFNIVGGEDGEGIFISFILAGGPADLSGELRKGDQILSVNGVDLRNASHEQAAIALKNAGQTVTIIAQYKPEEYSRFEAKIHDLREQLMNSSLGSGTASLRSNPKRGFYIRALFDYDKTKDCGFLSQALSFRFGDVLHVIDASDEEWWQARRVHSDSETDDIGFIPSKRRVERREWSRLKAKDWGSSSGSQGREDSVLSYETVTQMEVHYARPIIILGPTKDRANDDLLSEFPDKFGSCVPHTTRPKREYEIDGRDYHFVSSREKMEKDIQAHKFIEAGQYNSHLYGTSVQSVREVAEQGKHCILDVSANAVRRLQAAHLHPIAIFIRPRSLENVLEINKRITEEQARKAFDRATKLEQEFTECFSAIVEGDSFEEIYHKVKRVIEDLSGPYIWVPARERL

For YGRKKRRQRRRKLSSIESDV [nerinetide], the plasma half-life [1] is given as 5 to 10 min, the IC50 [2] is given as ~0.2 µM and the “outcome in ESCAPE-NA1, nerinetide group that did not receive alteplase” value [3] is given as “improved functional independence, reduced mortality, and reduced infarct volume”. For the same sequence, the “outcome in ESCAPE-NA1, patients that received alteplase” value [3] was “did not benefit”, the half-life [4] was 5 to 10 min and the “nerinetide content in rat plasma on addition of alteplase” value [5] was “reduced the nerinetide content in rat plasma in a concentration-dependent manner”. For the same sequence, the “adj. OR for favorable outcome (mRS 0-2 at 90 days)” value ([6]; no-alteplase stratum, all time windows of 12 h enrollment, nerinetide 2.6 mg/kg vs placebo) was 1.757, the “absolute effect size of nerinetide over placebo” value [6, 8] was 16.25% and the relative effect [6, 8] was 50.0%. For the same sequence, the “adj OR for functional outcome (mRS 0-2)” value [6, 9] was 5.100, the relative effect [6, 9] was 43.3% and the “unadjusted absolute effect size” value [6, 9] was 16.52%. The “adj OR for mRS(0-2)” value ([6]; no-alteplase, long interval drug infusion start to initial reperfusion (>=22 minutes)) was 2.715, the “adj OR for functional outcome (mRS 0-2)” value ([6]; no-alteplase, short CT to reperfusion interval (<73.5 minutes)) was 0.825 and the “adj OR for mRS(0-2)” value ([6]; no-alteplase, short interval drug infusion start to initial reperfusion (<22 minutes)) was 1.13. For the same sequence, the “adj OR, primary analysis (mRS 0-2)” value ([6]; no-alteplase, study drug more than 5 minutes after groin puncture) was 1.50, the “adj OR, primary analysis (mRS 0-2)” value ([6]; no-alteplase, study drug started at any time less than 5 minutes after groin puncture) was 2.33 and the “absolute effect size of nerinetide over placebo” value [6, 10] was 16.56%. For the same sequence, the relative effect [6, 10] was 36.1%, the absolute effect sizes ([6]; no-alteplase, treated in longer intervals from reperfusion (summary)) was “approximately 16%” and the absolute effect ([6]; whole no-alteplase stratum) was 9.65%. For the same sequence, the intrinsic fibrinolytic activity [7] was “does not have any intrinsic fibrinolytic activity”.
